Experimental data: publication PMC9028786, “The Ribosome Is the Ultimate Receptor for Trypsin Modulating Oostatic Factor (TMOF)” (Biomolecules, 2022)
Like-named read-outs stand apart in the source and are kept apart here. Ends that are not written are not given here.

Legend:
[1] = test system: E. coli CGSC strain7636 cells expressing SbmA^+; assay: Growth/viability of E. coli CGSC strain7636 expressing SbmA; type: cell-based, Escherichia coli; conditions: 3 and 10 mM peptide, 37 °C, 18 h, p < 0.05 vs control
Description: (§1) We aimed to find out if AeaTMOF can also stop bacterial growth as, was shown for the proline-rich Oncocin112 that binds to the bacterial ribosome, stopping protein translation, bacterial growth, and causing bacterial death. E. coli CGSC strain7636 (2.7 × 10^4 cells) SbmA^+, expressing the proline-rich peptides importer SbmA, were incubated in 96-well plate containing 100 μL/well of LB medium, 0.4 mM of IPTG, 0.1 mM of ampicillin, and different concentrations of AeaTMOF and Oncocin112 (1–13) (3 mM and 10 mM) in different wells. The 96-well plate was incubated at 37 °C for 18 h and bacterial growth was followed at 630 nm using Biotech ElX808 absorbance microplate reader. Control wells contained bacterial cells growing without AeaTMOF or oncocin112 (1–13). […] After the incubations in the presence of Oncocin112 (1–13) or AeaTMOF of 10 mM and 3 mM, aliquots (0.5 μL) were removed from each well and spread on LB agar plates containing 0.1 mM of ampicillin, and the plates were incubated overnight at 37 °C and viable colonies were counted. Incubations were done in triplicates and the experiments were repeated twice. Results are expressed as means of three determinations ± SEM.

[2] = test system: luciferase; assay: Effect on activity of pre-synthesized luciferase; type: biochemical, Beetle; conditions: S30 extract with pBESTluc for 4 h without peptide, then AeaTMOF 1 to 100 μM added; results not shown
Description: Incubations of E. coli S30 extract synthesizing Beetle luciferase in the presence of an increasing concentration of AeaTMOF (0.001 to 750 μM) stopped the biosynthesis of luciferase, diminishing its activity on Beetle luciferin as measured in luminescence units. The activity of the in vitro synthesized luciferase on Beetle luciferin at very low concentration of AeaTMOF (0.001 μM) was similar to luciferase activity without AeaTMOF, and this luminescence was used to calculate the decrease in luminescence (%) after incubation with increasing concentrations of AeaTMOF (Figure 1A). Higher concentrations of AeaTMOF (higher than 0.001 μM) caused a linear decrease in the synthesis of luciferase and a decline in luminescence (%) reaching IC50 (inhibition concentration of 50%) at 1 μM (Figure 1A). […] AeaTMOF is not an inhibitor of luciferase.

[3] = test system: S. frugiperda 80S ribosomes; assay: Inhibition of larval Ae. aegypti late trypsin translation in TnT T7 insect cell extract; type: biochemical, Spodoptera frugiperda; conditions: TnT T7 insect cell extract from S. frugiperda Sf21, pFA25A ICE T7 flexi-late larval trypsin, [3H]leucine, 30 °C, 4 h, AeaTMOF 0.01–750 μM; mean of three determinations; linear regression; read-out: IC50, inhibition of Ae. aegypti late larval [3H]trypsin biosynthesis
[4] = test system: trypsin mRNA in the gut epithelial cells; conditions: gut epithelial cells of Ae. aegypti and Neobellieria bullata; cited from earlier work
Text: (§2) Several of these ABC transporters with 80–100% similarity with the AeaTMOF receptor are also found in several Aedes, Anopheles, and ...

[5] = test system: Ae. aegypti larvae; conditions: fed AeaTMOF expressed by engineered Chlorella desiccate, Saccharomyces cerevisiae, and Pichia pastoris; cited from earlier work
Text: as §2

[6] = test system: ABC-tmfA transporter (accession number MK895491); conditions: cited from earlier work
Text: as §2

[7] = test system: female mosquitoes; conditions: injection after blood meal; cited from earlier work
[8] = test system: E. coli mutant cells CGSC strain 8547 SbmA^- expressing only ABC-tmfA importer; assay: Growth/viability of E. coli mutant CGSC strain 8547 SbmA^- expressing ABC-tmfA importer; type: cell-based, Escherichia coli
Description: E. coli CGSC strain […] lacking the SbmA importer expressing the ABCtmfA receptor/importer was prepared using plasmid pTAC-MAT-2 ABCtmfA importer/receptor as described earlier. [3,4,5 ^3H]Leucine 250 μCi, Spc Act 100–150 Ci/mmol was purchased from Perkin Elmer (Waltham, MA, USA). AeaTMOF-FITC (H-YDPAPPPPPPK(FITC)K-OH) was synthesized at the University of Colorado Anschutz School of Medicine protein core. AeaTMOF-FITC was purified by HPLC showing a single peak, and mass spectrometry analysis of the peak identified the 3 expected ions at 455.7, 607.3, and 910.3, showing an expected Mr 1019.56 as was described earlier. Synthetic AeaTMOF (H-YDPAPPPPPP-OH) and a short Oncocin112(1–13) (H-VDKPPYLPRPRPP-OH), a 13 amino acids oncocin112 peptide, 6 amino acids shorter than the original oncocin112 of 19 amino acids, were synthesized and purified by HPLC [16]. After HPLC purifications of AeaTMOF, oncocin112 (1–13), and AeaTMOF-FITC, the TFA ions were exchanged with phosphate ions.
as §1

[9] = test system: bacterial 70 S ribosome; assay: Inhibition of luciferase translation in E. coli S30 extract; type: biochemical, Escherichia coli; conditions: 2 h at 37 °C
Description: To test the effect of AeaTMOF and Oncocin112 (1–13) on the translation of Luciferase by the bacterial 70 S ribosome, an E. coli S30 lysate extract system for circular DNA (Promega) containing a plasmid pBestluc DNA vector (4486 bp) (1 mg/mL) 0.3 μL, amino acid mixture without methionine (1 mM) 1.25 μL, amino acid mixture without Leucine (1 mM) 1.25 μL, S30 premix (including ribosomes) without amino acids 5 μL, S30 extract circular 3.5 μL, RNasin (8 U, 112 ng) 0.2 μL, different concentrations of AeaTMOF or Oncocin112 (1–13) (0.001 μM to 1000 μM), and nuclease-free water to a volume of 12.5 μL were incubated for 2 h at 37 °C. […] After incubation, 87.5 μL of GLO lysis buffer (Promega) containing beetle luciferin was added, mixed, and aliquots (5 μL) were removed, and their luminescence read in a GLOMAX multidetector system. […] The decrease in luminescence (% ± SEM) in the presence of increasing log AeaTMOF or Oncocin112 (1–13) concentrations was then plotted using GrapPad Prism 3.

[10] = test system: late trypsin transcript; conditions: cited from earlier work
Text: (§3) Aedes aegypti Trypsin Modulating Oostatic Factor (AeaTMOF), a proline-rich peptide (YDPAPPPPPP), was originally isolated from the ovaries of female Ae. aegypti. AeaTMOF controls the biosynthesis of trypsin-like enzymes in the midgut epithelial cells of several species of mosquito including Aedes. aegypti, Culex quinquefasciatus, Culex. nigripalpus, and Anopheles albimanus. […] AeaTMOF was also ...

[11] = test system: late trypsin transcript in the gut epithelial cells; conditions: circulating in hemolymph of females after the blood meal; cited from earlier work
Text: as §3

Sequence: YDPAPPPPPP [AeaTMOF]
- E. coli growth ([1]; 630 nm): significantly inhibited the growth of the E. coli cells
- Viable colonies at end of incubation ([1]; initial 2.7 × 10^4 cells, LB medium, plated on LB agar, triplicates): 4–10 colonies
- Effect on activity of luciferase synthesized in vitro [2]: did not affect the activity of luciferase
- IC50 [3]: 1800 nM
- Effect on translation of trypsin mRNA [4]: stop the translation of trypsin mRNA
- Effect on larvae [5]: stopped larval trypsin biosynthesis and caused larval starvation and death
- Binding to gut receptor/importer [6]: binds a gut-specific receptor ABC-tmfA transporter
- Effect on blood-fed female mosquitoes [7]: only inhibits trypsin biosynthesis, and as a result the blood meal is not digested and egg development is inhibited, making the female mosquitoes sterile but not killing them
- E. coli growth ([8]; SbmA^- cells expressing ABC-tmfA importer, 3 and 10 mM peptide, 37 °C, 18 h, 630 nm, p < 0.05 for inhibition): significantly (p < 0.05) inhibited
- E. coli cell growth (discussion) ([8]; cells that only expressed ABCtmfA receptor/importer, up to 10 mM): inhibiting protein synthesis and cell growth
- Importer used ([8]; inferred from growth of SbmA^+ and SbmA^- ABC-tmfA E. coli, 3 and 10 mM): can use the mosquito ABCtmfA importer, as well as the bacterial SbmA importer
- Inhibition of luciferase biosynthesis at lowest concentration ([9]; AeaTMOF at 0.001 μM, Oncocin112 (1–13) at 0.01 μM): do not inhibit the biosynthesis of luciferase
- Concentration of complete inhibition of luciferase biosynthesis ([9]; E. coli S30 extract, luminescence): 250 to 750 µM
- IC50 ([9]; E. coli S30 lysate, pBestluc DNA, peptide 0.001 to 750 μM, luminescence read-out, mean of three determinations, read-out: IC50, inhibition of luciferase biosynthesis (luminescence)): 1000 nM
- Inhibition of translation of late trypsin transcript ([10]; AeaTMOF expressed on coat protein of Tobacco Mosaic Virus, fed to insects): stopped the translation of the trypsin transcript in the gut epithelial cells
- Inhibition of translation of late trypsin transcript [10]: inhibit the translation of the late trypsin transcript
- Effect on translation of late trypsin transcript [11]: affects the translation of the late trypsin transcript in the gut epithelial cells
